The values that follow come from patent publication US11564928B1, “Cannabinoid receptor type 2 (CB2) modulators and uses thereof” (Teon Therapeutics, Inc., priority 2020, dated 2023).

The target of one experiment is human CB2 receptor (Homo sapiens (Human), UniProt P34972). In words: CB2 receptor binding assay ([3H]CP-55,940 displacement, HEK-293 membranes).
The next experiment has as its target human recombinant CB1R (Homo sapiens (Human), UniProt P21554). In words: CB1 receptor binding assay ([3H]CP-55,940 displacement, HEK-293 membranes). To be noted: membranes of HEK-293 cells with human recombinant CB1R, [3H]CP-55,940, read-out: CB1 IC50. In a few lines: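 Displacement of [3H]CP-55,940 was measured on human CB1R- or CB2R-transfected HEK-293 membranes after 120 min at 37 °C, in duplicate, with filtration and scintillation counting. For CB2R, incubation used Tris-HCl 50 mM, MgCl2 5 mM, CaCl2 1 mM, BSA 0.2%, pH 7.4. Ki values were derived from variable-slope IC50 fits using Cheng–Prusoff.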

[1] abbreviates: membranes of HEK-293 cells with human recombinant CB2R, [3H]CP-55,940, read-out: CB2 IC50.
[2] abbreviates: membranes of HEK-293 cells with human recombinant CB2R, [3H]CP-55,940, class symbols, read-out: CB2 IC50.

As usually defined, the IC50 is the concentration that gives 50% inhibition.

Read-outs that look alike come from different tables or passages of the source.

human recombinant CB1R, sequence (P21554 whole entry): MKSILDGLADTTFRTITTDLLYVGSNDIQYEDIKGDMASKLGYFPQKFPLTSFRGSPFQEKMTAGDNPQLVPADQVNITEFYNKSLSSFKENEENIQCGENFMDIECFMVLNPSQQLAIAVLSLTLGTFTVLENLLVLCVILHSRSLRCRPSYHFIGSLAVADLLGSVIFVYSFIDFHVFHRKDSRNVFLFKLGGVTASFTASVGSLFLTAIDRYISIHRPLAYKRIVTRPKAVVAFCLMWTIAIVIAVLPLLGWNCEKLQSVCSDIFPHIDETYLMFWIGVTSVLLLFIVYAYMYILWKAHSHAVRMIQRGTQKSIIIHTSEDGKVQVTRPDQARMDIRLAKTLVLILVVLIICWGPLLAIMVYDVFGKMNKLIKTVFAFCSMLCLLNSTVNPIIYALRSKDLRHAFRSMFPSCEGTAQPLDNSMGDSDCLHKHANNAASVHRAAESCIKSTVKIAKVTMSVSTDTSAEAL
human CB2 receptor, sequence (P34972 whole entry): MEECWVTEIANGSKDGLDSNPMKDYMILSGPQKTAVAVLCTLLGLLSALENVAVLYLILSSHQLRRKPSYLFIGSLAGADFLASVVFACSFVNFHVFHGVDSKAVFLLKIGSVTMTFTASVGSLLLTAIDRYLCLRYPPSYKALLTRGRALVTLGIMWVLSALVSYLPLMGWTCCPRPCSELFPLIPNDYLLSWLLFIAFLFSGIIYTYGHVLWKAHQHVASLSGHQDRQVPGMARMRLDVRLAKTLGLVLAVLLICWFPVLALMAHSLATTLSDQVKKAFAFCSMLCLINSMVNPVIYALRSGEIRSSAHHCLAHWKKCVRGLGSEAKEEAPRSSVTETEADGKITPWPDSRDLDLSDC

As for `O=C(NC12CCC(C1)C2)c1c(O)c2cc(-c3ccc(F)cc3)cnc2n(CCN2CCOCC2)c1=O` [Compound 115, N-(bicyclo[2.1.1]hexan-1-yl)-6-(4-fluorophenyl)-4-hydroxy-1-(2-morpholinoethyl)-2-oxo-1,2-dihydro-1,8-naphthyridine-3-carboxamide], the 50% inhibitory concentration (IC50) at human CB2 receptor (setting [1]) was found to be 0.029 µM; at human recombinant CB1R it was 0.552 µM.
The matching figures for `O=C(NC12CCC(CC1)CC2)c1c(O)c2cc(-c3ccc(F)cc3)cnc2n(CCN2CCOCC2)c1=O` [Compound 116, N-(bicyclo[2.2.2]octan-1-yl)-6-(4-fluorophenyl)-4-hydroxy-1-(2-morpholinoethyl)-2-oxo-1,2-dihydro-1,8-naphthyridine-3-carboxamide]: 0.031 µM and 1.48 µM.
Regarding `CC(C)(CO)NC(=O)c1c(O)c2cc(-c3ccc(F)cc3)cnc2n(CCN2CCOCC2)c1=O` [Compound 117, 6-(4-fluorophenyl)-4-hydroxy-N-(1-hydroxy-2-methylpropan-2-yl)-1-(2-morpholinoethyl)-2-oxo-1,2-dihydro-1,8-naphthyridine-3-carboxamide], the concentration for half-maximal inhibition (IC50) is 0.1 to 0.999 µM at human CB2 receptor and above 1 µM on human recombinant CB1R (class symbols).
The matching figures for `CC(C)(C)NC(=O)c1c(O)c2cc(-c3ccc(F)cc3)cnc2n(CCN2CCOCC2)c1=O` [Compound 118, N-(tert-butyl)-6-(4-fluorophenyl)-4-hydroxy-1-(2-morpholinoethyl)-2-oxo-1,2-dihydro-1,8-naphthyridine-3-carboxamide]: 0.1 to 0.999 µM and above 1 µM.
The like results for `COC(=O)C(C)(C)NC(=O)c1c(O)c2cc(-c3ccc(F)cc3)cnc2n(CCN2CCOCC2)c1=O` [Compound 119, methyl 2-(6-(4-fluorophenyl)-4-hydroxy-1-(2-morpholinoethyl)-2-oxo-1,2-dihydro-1,8-naphthyridine-3-carboxamido)-2-methylpropanoate] were, in that order, 0.1 to 0.999 µM and above 1 µM.
Regarding `CC(C)(NC(=O)c1c(O)c2cc(-c3ccc(F)cc3)cnc2n(CCN2CCOCC2)c1=O)C(=O)O` [Compound 120, 2-(6-(4-fluorophenyl)-4-hydroxy-1-(2-morpholinoethyl)-2-oxo-1,2-dihydro-1,8-naphthyridine-3-carboxamido)-2-methylpropanoic acid], the IC50 at human CB2 receptor (setting [2]) and at human recombinant CB1R (class symbols) was above 1 µM in each case.
For `O=C(NC1(CO)CCCCC1)c1c(O)c2cc(-c3ccc(F)cc3)cnc2n(CCN2CCOCC2)c1=O` [Compound 121, 6-(4-fluorophenyl)-4-hydroxy-N-(1-(hydroxymethyl)cyclohexyl)-1-(2-morpholinoethyl)-2-oxo-1,2-dihydro-1,8-naphthyridine-3-carboxamide], the IC50 came out at 0.009 µM at human CB2 receptor (setting [1]) and 2.31 µM at human recombinant CB1R.
For `O=C(NC12CC(C1)C2)c1c(O)c2cc(-c3ccc(F)cn3)cnc2n(CCN2CCOCC2)c1=O` [Compound 122, N-(bicyclo[1.1.1]pentan-1-yl)-6-(5-fluoropyridin-2-yl)-4-hydroxy-1-(2-morpholinoethyl)-2-oxo-1,2-dihydro-1,8-naphthyridine-3-carboxamide], the IC50 at human CB2 receptor was 0.1 to 0.999 µM; at human recombinant CB1R (class symbols), above 1 µM.
With `O=C(NC12CC(C1)C2)c1c(O)c2cc(-c3cccnc3)cnc2n(CCN2CCOCC2)c1=O` [Compound 123, N-(bicyclo[1.1.1]pentan-1-yl)-4-hydroxy-1-(2-morpholinoethyl)-2-oxo-6-(pyridin-3-yl)-1,2-dihydro-1,8-naphthyridine-3-carboxamide], the IC50 at human CB2 receptor (setting [2]) and at human recombinant CB1R (class symbols) was above 1 µM in each case.
For the compound `O=C(NC12CC(C1)C2)c1c(O)c2cc(-c3ccncc3)cnc2n(CCN2CCOCC2)c1=O` [Compound 124, N-(bicyclo[1.1.1]pentan-1-yl)-4-hydroxy-1-(2-morpholinoethyl)-2-oxo-6-(pyridin-4-yl)-1,2-dihydro-1,8-naphthyridine-3-carboxamide], the half-inhibitory concentration (IC50) at human CB2 receptor (setting [2]) and at human recombinant CB1R (class symbols) was above 1 µM throughout.
As for `O=C(NC12CC(C1)C2)c1c(O)c2cc(C3=CCCC3)cnc2n(CCN2CCOCC2)c1=O` [Compound 125, N-(bicyclo[1.1.1]pentan-1-yl)-6-(cyclopent-1-en-1-yl)-4-hydroxy-1-(2-morpholinoethyl)-2-oxo-1,2-dihydro-1,8-naphthyridine-3-carboxamide], the IC50 on human CB2 receptor is 0.1 to 0.999 µM; on human recombinant CB1R (class symbols), above 1 µM.
As to `O=C(NC12CC(C1)C2)c1c(O)c2cc(C3CCCC3)cnc2n(CCN2CCOCC2)c1=O` [Compound 126, N-(bicyclo[1.1.1]pentan-1-yl)-6-cyclopentyl-4-hydroxy-1-(2-morpholinoethyl)-2-oxo-1,2-dihydro-1,8-naphthyridine-3-carboxamide], the IC50 on human CB2 receptor (setting [2]) and on human recombinant CB1R (class symbols) was above 1 µM in each case.
Turning to `O=C(NC12CC(C1)C2)c1c(O)c2cc(C3CCC3)cnc2n(CCN2CCOCC2)c1=O` [Compound 127, N-(bicyclo[1.1.1]pentan-1-yl)-6-cyclobutyl-4-hydroxy-1-(2-morpholinoethyl)-2-oxo-1,2-dihydro-1,8-naphthyridine-3-carboxamide], the IC50 on human CB2 receptor (setting [2]) and on human recombinant CB1R (class symbols) was above 1 µM in each case.
Turning to `O=C(NC12CC(C1)C2)c1c(O)c2cc(-c3ccc(F)cc3)cnc2n(CCN2CCCCC2)c1=O` [Compound 128, N-(bicyclo[1.1.1]pentan-1-yl)-6-(4-fluorophenyl)-4-hydroxy-2-oxo-1-(2-(piperidin-1-yl)ethyl)-1,2-dihydro-1,8-naphthyridine-3-carboxamide], the IC50 on human CB2 receptor was 0.1 to 0.999 µM; on human recombinant CB1R (class symbols), above 1 µM.
On to `O=C(NC12CC(C1)C2)c1c(O)c2cc(-c3ccc(F)cc3)cnc2n(Cc2ccncc2)c1=O` [Compound 129, N-(bicyclo[1.1.1]pentan-1-yl)-6-(4-fluorophenyl)-4-hydroxy-2-oxo-1-(pyridin-4-ylmethyl)-1,2-dihydro-1,8-naphthyridine-3-carboxamide], for which the IC50 at human CB2 receptor (setting [2]) and on human recombinant CB1R (class symbols) was above 1 µM throughout.
In the case of `O=C(NC12CC(C1)C2)c1c(O)c2cc(-c3ccc(F)cc3)cnc2n(Cc2cccnc2)c1=O` [Compound 130, N-(bicyclo[1.1.1]pentan-1-yl)-6-(4-fluorophenyl)-4-hydroxy-2-oxo-1-(pyridin-3-ylmethyl)-1,2-dihydro-1,8-naphthyridine-3-carboxamide], the IC50 at human CB2 receptor (setting [2]) and at human recombinant CB1R (class symbols) was above 1 µM throughout.
Turning to `O=C(NC12CC(C1)C2)c1c(O)c2cc(-c3ccc(F)cc3)cnc2n(Cc2ccc(F)cn2)c1=O` [Compound 131, N-(bicyclo[1.1.1]pentan-1-yl)-6-(4-fluorophenyl)-1-((5-fluoropyridin-2-yl)methyl)-4-hydroxy-2-oxo-1,2-dihydro-1,8-naphthyridine-3-carboxamide], the IC50 at human CB2 receptor (setting [2]) and on human recombinant CB1R (class symbols) was above 1 µM in each case.
`CN1CCN(CCn2c(=O)c(C(=O)NC34CC(C3)C4)c(O)c3cc(-c4ccc(F)cc4)cnc32)CC1` [Compound 132, N-(bicyclo[1.1.1]pentan-1-yl)-6-(4-fluorophenyl)-4-hydroxy-1-(2-(4-methylpiperazin-1-yl)ethyl)-2-oxo-1,2-dihydro-1,8-naphthyridine-3-carboxamide]: the IC50 is 0.1 to 0.999 µM at human CB2 receptor and above 1 µM at human recombinant CB1R (class symbols).
